The source of these data is PMC5908784, “Extracellular loops 2 and 3 of the calcitonin receptor selectively modify agonist binding and efficacy” (Biochemical Pharmacology, 2018).

Holding throughout (test): Homologous whole cell competition binding
Details in all cases: homologous competition of 125I-sCT(8-32), whole cells, mean ± S.E.M., SEM

In one test the target is T1, hCTR Y299A (Homo sapiens, UniProt P30988, Y299A).
T1 construct: c-Myc (N); expressed in transfected cells
T1 sequence (P30988 25-474 Y299A): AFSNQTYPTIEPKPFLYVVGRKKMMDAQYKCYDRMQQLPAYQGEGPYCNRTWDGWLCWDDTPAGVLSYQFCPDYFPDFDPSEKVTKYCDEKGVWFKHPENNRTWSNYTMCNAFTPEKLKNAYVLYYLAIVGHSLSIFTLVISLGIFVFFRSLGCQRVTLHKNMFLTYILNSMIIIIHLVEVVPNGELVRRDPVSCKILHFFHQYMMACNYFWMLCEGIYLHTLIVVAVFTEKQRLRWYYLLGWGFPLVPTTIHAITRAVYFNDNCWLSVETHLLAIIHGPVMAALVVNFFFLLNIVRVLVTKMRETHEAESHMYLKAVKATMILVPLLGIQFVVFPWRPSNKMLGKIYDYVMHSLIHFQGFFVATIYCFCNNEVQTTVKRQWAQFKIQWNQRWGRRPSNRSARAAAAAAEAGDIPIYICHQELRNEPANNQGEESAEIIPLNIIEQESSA
A digest of the protocol:
(§1)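 Values are pKi, derived from IC50 of unlabelled sCT(8-32) displacing ^125I-sCT(8-32) (25–100 pM) from whole cells after overnight incubation at 4 °C. Specific binding was scaled between tracer-only total and 1 μM cold-peptide background.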

Another test deals with T2, hCTR D373A (Homo sapiens, UniProt P30988, D373A).
T2 construct: c-Myc (N); expressed in transfected cells
T2 sequence (P30988 25-474 D373A): T1 sequence (P30988 25-474 Y299A) with A275Y, D349A
Put shortly: as §1

The next test has as its target T3, hCTR V375A (Homo sapiens, UniProt P30988, V375A).
T3 construct: c-Myc (N); expressed in transfected cells
T3 sequence (P30988 25-474 V375A): T1 sequence (P30988 25-474 Y299A) with A275Y, V351A
Put shortly:
as §1

A further test concerns the target T4, hCTR P363A (Homo sapiens, UniProt P30988, P363A).
T4 construct: expressed in transfected cells
T4 sequence (P30988 25-474 P363A): T1 sequence (P30988 25-474 Y299A) with A275Y, P339A
Put shortly:
as §1

Where a chain is given by its changes, count along the chain named. Where no end group is shown, it is not given here.

By Ki is commonly meant the dissociation constant of the complex between target and ligand, obtained from inhibition or displacement. Turning to “VLGKLSQELHKLQTYPRTNTGSGTP-NH2 [sCT(8-32)]”, the inhibitory constant (Ki) on hCTR Y299A is 0.107 nM; on hCTR D373A it was 0.525 nM; at hCTR V375A it was 0.191 nM; on hCTR P363A it was 0.355 nM.
